Tested on: Endogenous Huntingtin Protein
Assay: Endogenous Huntingtin Protein Assay (ELISA-based MSD electrochemiluminescence)
Type: cell-based
Conditions: Table 2; MSD plates coated with MW1 (expanded polyglutamine) or MAB2166 capture antibody; "inactive" = result above the detection limit of the assay
Experimental: Compounds of Formula (I) were tested using the Meso Scale Discovery (MSD) Assay provided in International Application No. PCT/US2016/066042, filed on Dec. 11, 2016 and claiming priority to U.S. Provisional Application 62/265,652 filed on Dec. 10, 2015, the entire contents of which are incorporated herein by reference.
The Endogenous Huntingtin Protein assay used in Biological Example 1 was developed using the ELISA-based MSD electrochemiluminescence assay platform.
Meso Scale Discovery (MSD) 96-well or 384-well plates were coated overnight at 4° C. with MW1 (expanded polyglutamine) or MAB2166 monoclonal antibody (for capture) at a concentration of 1 μg/mL in PBS (30 μL per well). Plates were then washed three times with 300 μL wash buffer (0.05% Tween-20 in PBS) and blocked (100 μL blocking buffer; 5% BSA in PBS) for 4-5 hours at room temperature with rotational shaking and then washed three times with wash buffer.
Samples (25 μL) were transferred to the antibody-coated MSD plate and incubated overnight at 4° C. After removal of the lysates, the plate was washed three times with wash buffer, and 25 μL of #56565 (Cell signaling; rabbit monoclonal) secondary antibody (diluted to 0.25 μg/mL in 0.05% Tween-20 in blocking buffer) was added to each well and incubated with shaking for 1 Hour at room temperature. Following incubation with the secondary antibody, the wells were rinsed with wash buffer after which 25 μL of goat anti-rabbit SULFO TAG secondary detection antibody (required aspect of the MSD system) (diluted to 0.25 μg/mL in 0.05% Tween-20 in blocking buffer) was added to each well and incubated with shaking for 1 hour at room temperature. After rinsing three times with wash buffer, 150 μL of read buffer T with surfactant (MSD) were added to each empty well, and the plate was imaged on a SI 6000 imager (MSD) according to manufacturers' instructions provided for 96- or 384-well plates.

Row | Structure (SMILES) | IC50 | IC50 (nM)
1 | CC[C@H]1CN(c2ncc(-c3ccc(-n4nccn4)cc3O)nn2)CCN1 [Cpd 132, 2-{3-[(3S)-3-ethylpiperazin-1-yl]-1,2,4-triazin-6-yl}-5-(2H-1,2,3-triazol-2-yl)phenol] | 38.9 nM | –
2 | Cc1cnc(-c2ccc(-c3cnc(N4CCN[C@@H](C(C)C)C4)nn3)c(O)c2)cn1 [Cpd 145, 5-(5-methylpyrazin-2-yl)-2-{3-[(3S)-3-(propan-2-yl)piperazin-1-yl]-1,2,4-triazin-6-yl}phenol] | 480 nM | –
3 | CN1CCN(c2ncc(-c3ccc(-c4cnc5nn(C)cc5c4)cc3O)nn2)CC1 [Cpd 110, 2-[3-(4-methylpiperazin-1-yl)-1,2,4-triazin-6-yl]-5-(2-methyl-2H-pyrazolo[3,4-b]pyridin-5-yl)phenol] | 24.9 nM | –
4 | Cc1cc(-c2ccc(-c3cnc(N4CCNC(C(C)C)C4)nn3)c(O)c2)ncn1 (racemic) [Cpd 149, 5-(6-methylpyrimidin-4-yl)-2-{3-[(3RS)-3-(propan-2-yl)piperazin-1-yl]-1,2,4-triazin-6-yl}phenol] | 90.7 nM | –
5 | COc1cc(-c2ccc(-c3cnc(N4C[C@@H](C)N[C@@H](C(C)(C)C)C4)nn3)c(O)c2)ncn1 [Cpd 255, 2-{3-[(3S,5R)-3-tert-butyl-5-methylpiperazin-1-yl]-1,2,4-triazin-6-yl}-5-(6-methoxypyrimidin-4-yl)phenol] | 341 nM | –
6 | CC(C)C1CN(c2ncc(-c3ccc(-c4cnn(C)c4)cc3O)nn2)CCN1 (stereo not shown) [Cpd 35, 5-(1-methyl-1H-pyrazol-4-yl)-2-{3-[3-(propan-2-yl)piperazin-1-yl]-1,2,4-triazin-6-yl}phenol] | 46.1 nM | –
7 | CC(C)(C)[C@H]1CN(c2ncc(-c3ccc(-n4nccn4)cc3O)nn2)CCN1 [Cpd 18, 2-{3-[(3S)-3-tert-butylpiperazin-1-yl]-1,2,4-triazin-6-yl}-5-(2H-1,2,3-triazol-2-yl)phenol] | 15.1 nM | –
8 | CC[C@H]1CN(c2ncc(-c3ccc(-c4ccnc(OC)c4)cc3O)nn2)C[C@@H](C)N1 (single isomer, unassigned) [Cpd 266, 2-{3-[(3S,5R)-3-ethyl-5-methylpiperazin-1-yl]-1,2,4-triazin-6-yl}-5-(2-methoxypyridin-4-yl)phenol or 2-{3-[(3R,5S)-3-ethyl-5-methylpiperazin-1-yl]-1,2,4-triazin-6-yl}-5-(2-methoxypyridin-4-yl)phenol] | 19.4 nM | –
9 | Oc1cc(-c2cn[nH]c2)ccc1-c1cnc(N2CCN3CCOCC3C2)nn1 (stereo not drawn) [Cpd 64, 2-[3-(hexahydropyrazino[2,l-c][1,4]oxazin-8(1H)-yl)-1,2,4-triazin-6-yl]-5-(1H-pyrazol-4-yl)phenol] | – | inactive
10 | CC(C)[C@H]1CN(c2ncc(-c3ccc(-c4nc(Cl)cs4)cc3O)nn2)CCN1 [Cpd 188, 5-(4-chloro-1,3-thiazol-2-yl)-2-{3-[(3S)-3-(propan-2-yl)piperazin-1-yl]-1,2,4-triazin-6-yl}phenol] | 105 nM | –
11 | CC(C)[C@H]1CN(c2ncc(-c3ccc(-c4ccc5nccn5c4)cc3O)nn2)CCN1 [Cpd 114, 5-(imidazo[1,2-a]pyridin-6-yl)-2-{3-[(3S)-3-(propan-2-yl)piperazin-1-yl]-1,2,4-triazin-6-yl}phenol] | 54.4 nM | –
12 | Cn1nc2cc(-c3ccc(-c4cnc(N5CCN[C@H](C6(C)CC6)C5)nn4)c(O)c3)cnc2n1 [Cpd 242, 2-{3-[(3R)-3-(1-methylcyclopropyl)piperazin-1-yl]-1,2,4-triazin-6-yl}-5-(2-methyl-2H-[1,2,3]triazolo[4,5-b]pyridin-6-yl)phenol] | 106 nM | –
13 | Oc1cc(-c2cn[nH]c2)ccc1-c1cnc(N2CCN[C@H](C3CC3)C2)nn1 [Cpd 136, 2-{3-[(3R)-3-cyclopropylpiperazin-1-yl]-1,2,4-triazin-6-yl}-5-(1H-pyrazol-4-yl)phenol] | 50.5 nM | –
14 | CC(C)N1CCN(c2ncc(-c3ccc(-c4cn[nH]c4)cc3O)nn2)CC1 [Cpd 60, 2-{3-[4-(propan-2-yl)piperazin-1-yl]-1,2,4-triazin-6-yl}-5-(1H-pyrazol-4-yl)phenol] | 1010 nM | –
15 | CC[C@H]1CN(c2ncc(-c3ccc(-c4ncns4)cc3O)nn2)C[C@@H](C)N1 (single isomer, unassigned) [Cpd 267, 2-{3-[(3S,5R)-3-ethyl-5-methylpiperazin-1-yl]-1,2,4-triazin-6-yl}-5-(1,2,4-thiadiazol-5-yl)phenol or 2-{3-[(3R,5S)-3-ethyl-5-methylpiperazin-1-yl]-1,2,4-triazin-6-yl}-5-(1,2,4-thiadiazol-5-yl)phenol] | 145 nM | –
16 | CC(C)[C@H]1CN(c2ncc(-c3ccc(-n4ncc5cncnc54)cc3O)nn2)CCN1 [Cpd 162, 2-{3-[(3S)-3-(propan-2-yl)piperazin-1-yl]-1,2,4-triazin-6-yl}-5-(1H-pyrazolo[3,4-d]pyrimidin-1-yl)phenol] | 25.4 nM | –
17 | CN1CCN(c2ncc(-c3ccc(-c4cn[nH]c4)cc3O)nn2)CC1C1COC1 (stereo not shown) [Cpd 187, 2-{3-[4-methyl-3-(oxetan-3-yl)piperazin-1-yl]-1,2,4-triazin-6-yl}-5-(1H-pyrazol-4-yl)phenol] | 401 nM | –

Results, then the compound that gave them:

Row | IC50 | IC50 (nM) | Structure (SMILES)
18 | 2.1 nM | – | Oc1cc(-c2c[nH]nc2F)ccc1-c1cnc(N2CCN[C@@H](C3CC3)C2)nn1 [Cpd 1, 2-{3-[(3S)-3-cyclopropylpiperazin-1-yl]-1,2,4-triazin-6-yl}-5-(3-fluoro-1H-pyrazol-4-yl)phenol]
19 | 13.4 nM | – | Cc1cn2cc(-c3ccc(-c4cnc(N5C[C@@H](C)N[C@@H](C)C5)nn4)c(O)c3)nc(C)c2n1 [Cpd 103, 5-(2,8-dimethylimidazo[1,2-a]pyrazin-6-yl)-2-{3-[(3R,5S)-3,5-dimethylpiperazin-1-yl]-1,2,4-triazin-6-yl}phenol]
20 | 3.9 nM | – | [2H]C([2H])([2H])Oc1cc(-c2ccc(-c3cnc(N4CCN[C@@H](C5CC5)C4)nn3)c(O)c2)ncn1 [Cpd 2, 2-{3-[(3S)-3-cyclopropylpiperazin-1-yl]-1,2,4-triazin-6-yl}-5-{6-[(^2H3)methyloxy]pyrimidin-4-yl}phenol]
21 | 12.2 nM | – | CC(C)(O)C1CN(c2ncc(-c3ccc(-n4nccn4)cc3O)nn2)CCN1 (stereo not shown) [Cpd 14, 2-{3-[3-(2-hydroxypropan-2-yl)piperazin-1-yl]-1,2,4-triazin-6-yl}-5-(2H-1,2,3-triazol-2-yl)phenol]
22 | 7.3 nM | – | CC(C)(C)[C@H]1CN(c2ncc(-c3ccc(-c4c[nH]nc4F)cc3O)nn2)CCN1 [Cpd 125, 2-{3-[(3S)-3-tert-butylpiperazin-1-yl]-1,2,4-triazin-6-yl}-5-(3-fluoro-1H-pyrazol-4-yl)phenol]
23 | 4 nM | – | Cn1nc2cnc(-c3ccc(-c4cnc(N5CCN[C@@H](C6CC6)C5)nn4)c(O)c3)cc2n1 [Cpd 172, 2-{3-[(3S)-3-cyclopropylpiperazin-1-yl]-1,2,4-triazin-6-yl}-5-(2-methyl-2H-[1,2,3]triazolo[4,5-c]pyridin-6-yl)phenol]
24 | 6.4 nM | – | Cc1cn2cc(-c3ccc(-c4cnc(N5C[C@@H](C)N[C@@H](C)C5)nn4)c(O)c3)cc(C#N)c2n1 [Cpd 87, 6-(4-{3-[(3R,5S)-3,5-dimethylpiperazin-1-yl]-1,2,4-triazin-6-yl}-3-hydroxyphenyl)-2-methylimidazo[1,2-a]pyridine-8-carbonitrile]
25 | 6.5 nM | – | CC(C)[C@H]1CN(c2ncc(-c3ccc(-c4ccc5nn(C)cc5c4)cc3O)nn2)CCN1 [Cpd 88, 5-(2-methyl-2H-indazol-5-yl)-2-{3-[(3S)-3-(propan-2-yl)piperazin-1-yl]-1,2,4-triazin-6-yl}phenol]
